Assay results published in patent publication US4559323A, “A41030 Antibiotics” (Eli Lilly and Company, priority 1984, dated 1985).
Like-named read-outs stand apart in the source and are kept apart here.

Legend:
[1] = test system: B. thetaiotaomicron; type: cell-based
Text: (§1) The agar-dilution procedure described by the International Collaborative study (ICS) group was used to determine the minimum inhibitory concentrations (MIC's).

[2] = test system: Peptostreptococcus anaerobius; assay: Agar-dilution MIC (anaerobes); type: cell-based
[3] = test system: Hemophilus influenzae; assay: Agar-dilution MIC; type: cell-based; details: Table 17, 24 hours
[4] = test system: Bacteroides corrodens; assay: Agar-dilution MIC (anaerobes); type: cell-based; details: Table 14; Bacteroides corrodens 1874
[5] = test system: Clostridium difficile; type: cell-based; details: Table 14; Clostridium difficile 2994
[6] = test system: Peptococcus asaccharolyticus; assay: Agar-dilution MIC (anaerobes); type: cell-based; details: Table 15
Procedure: (§2) The MIC values were determined by the agar-dilution method, and are recorded in Table 15, which follows.

[7] = test system: Bacteroides vulgatis; assay: Agar-dilution MIC (anaerobes); type: cell-based; details: Table 14; Bacteroides vulgatis 1211
[8] = test system: Bacteroides fragilis; assay: Agar-dilution MIC (anaerobes); type: cell-based
Text: as §1

[9] = test system: Bacteroides corrodens; assay: Agar-dilution MIC (anaerobes); type: cell-based; details: Table 12; 24-hour; B. corrodens 1874
Text: (§3) The A41030 antibiotics, factors A, B, and C, are active against a genus of anaerobic bacteria identified as Bacteroides sp., the 24-hour MIC values being determined by the agar-dilution method, and are set forth in Table 12, which follows.

[10] = test system: Bacteroides vulgatis; assay: Agar-dilution MIC (anaerobes); type: cell-based; details: Table 12; 24-hour; B. vulgatis 1563
Text: as §3

[11] = test system: Fusobacterium symbiosum; assay: Agar-dilution MIC (anaerobes); type: cell-based; details: Table 14; Fusobacterium symbiosum 1470
[12] = test system: Streptococcus pyogenes; assay: Agar-dilution MIC; type: cell-based; details: Table 17; 24 hours; Streptococcus pyogenes C203
Text: as §1

[13] = test system: Streptococcus sp. (Group D); assay: Agar-dilution MIC; type: cell-based; details: Table 17, 24 hours
Text: as §1

[14] = test system: Peptococcus prevoti; assay: Agar-dilution MIC (anaerobes); type: cell-based
[15] = Electrometric titration (pKa); type: physicochemical; details: electrometric titration in 66% dimethylformamide in water
[16] = Solubility in solvents; type: physicochemical; details: solvents as named
Text: The seven antibiotic factors are recovered from the fermentation and are obtained as a mixture, the A41030 complex. It will be recognized that the ratio of the factors in the A41030 complex will vary, depending upon the fermentation conditions used. The individual factors […], and G are separated and isolated as individual compounds, as hereinafter described.

[17] = test system: Bacteroides melaninogenicus; assay: Agar-dilution MIC (anaerobes); type: cell-based; details: Table 14; Bacteroides melaninogenicus 2736
[18] = test system: Clostridium perfringens; type: cell-based; details: Table 14; Clostridium perfringens 81
[19] = test system: Pc. constellatus; assay: Agar-dilution MIC (anaerobes); type: cell-based, Peptococcus constellatus; details: Table 15; Pc. constellatus 1468
Procedure: as §2

[20] = test system: Salmonella typhi; assay: Agar-dilution MIC; type: cell-based; details: Table 17, 24 hours
[21] = test system: S. pyogenes; assay: In vivo oral activity against S. pyogenes in mice
[22] = test system: Fusobacterium necrophorum; assay: Agar-dilution MIC (anaerobes); type: cell-based; details: Table 14; Fusobacterium necrophorum 6054A
[23] = test system: Clostridium difficile; type: cell-based; details: Table 16
Text: The A41030 antibiotic factors A, B, C, D, E, F, and G, are also active against a number of strains of Clostridium difficile, as determined by the agar-dilution method.

A41030 factor C
MIC ([1]; Table 12, 24-hour, B. thetaiotaomicron 1438): 32 µg/mL
MIC ([1]; Table 12, 24-hour, B. thetaiotaomicron 1900A): 128 µg/mL
MIC ([1]; Table 14, Bacteroides thetalotaomicron 1438): 64 µg/mL
MIC ([2]; Table 14, Peptostreptococcus anaerobius 1428): ≤ 0.25 µg/mL
MIC ([2]; Table 15, Ps. anaerobius 52): 0.25 µg/mL
MIC ([2]; Table 15, Ps. anaerobius 59): 0.25 µg/mL
MIC ([2]; Table 15, Ps. anaerobius 1418): ≤ 0.03 µg/mL
MIC ([2]; Table 15, Ps. anaerobius 1428): 0.25 µg/mL
MIC ([2]; Table 15, Ps. anaerobius 1451): 0.25 µg/mL
MIC ([2]; Table 15, Ps. anaerobius 1477): 0.25 µg/mL
MIC ([3]; Haemophilus influenzae 251): 4 µg/mL
MIC ([3]; Haemophilus influenzae Brun): 16 µg/mL
MIC [4]: 32 µg/mL
MIC [5]: 16 µg/mL
MIC ([6]; Pc. asaccharolyticus 1302): 0.125 µg/mL
MIC ([6]; Pc. asaccharolyticus 1344): 1.0 µg/mL
MIC [7]: 32 µg/mL
MIC ([8]; Table 12, 24-hour, B. fragilis 2): 32 µg/mL
MIC ([8]; Table 12, 24-hour, B. fragilis 9): 32 µg/mL
MIC ([8]; Table 12, 24-hour, B. fragilis 103): 32 µg/mL
MIC ([8]; Table 12, 24-hour, B. fragilis 104): 32 µg/mL
MIC ([8]; Table 12, 24-hour, B. fragilis 106): 32 µg/mL
MIC ([8]; Table 12, 24-hour, B. fragilis 107): 32 µg/mL
MIC ([8]; Table 12, 24-hour, B. fragilis 108): 64 µg/mL
MIC ([8]; Table 12, 24-hour, B. fragilis 110): 64 µg/mL
MIC ([8]; Table 12, 24-hour, B. fragilis 111): 32 µg/mL
MIC ([8]; Table 12, 24-hour, B. fragilis 112): 32 µg/mL
MIC ([8]; Table 12, 24-hour, B. fragilis 113): 32 µg/mL
MIC ([8]; Table 12, 24-hour, B. fragilis 1451): 64 µg/mL
MIC ([8]; Table 12, 24-hour, B. fragilis 1470): 64 µg/mL
MIC ([8]; Table 12, 24-hour, B. fragilis 1877): 32 µg/mL
MIC ([8]; Table 12, 24-hour, B. fragilis 9032): 32 µg/mL
MIC ([8]; Table 14, Bacteroides fragilis 1877): 16 µg/mL
MIC ([8]; Table 14, Bacteroides fragilis 1936B): 32 µg/mL
MIC [9]: 32 µg/mL
MIC [10]: 32 µg/mL
MIC [11]: 1.0 µg/mL
MIC [12]: 1 µg/mL
MIC ([13]; Streptococcus sp. Group D 9960): 4 µg/mL
MIC ([13]; Streptococcus sp. Group D X66): 2 µg/mL
MIC ([14]; Table 14, Peptococcus prevoti 1281): ≤ 0.25 µg/mL
MIC ([14]; Table 15, Pc. prevoti 1281): 1.0 µg/mL
MIC ([14]; Table 15, Pc. prevoti 1293): 0.5 µg/mL
MIC ([14]; Table 15, Pc. prevoti 1407): 1.0 µg/mL
pKa, first titratable group [15]: about 5.5
Solubility [16]: soluble in the same solvents as factor A
MIC [17]: 4 µg/mL
MIC [18]: 1.0 µg/mL
MIC [19]: 0.5 µg/mL
MIC ([20]; Salmonella typhi 1335): > 128 µg/mL
MIC ([20]; Salmonella typhi X514): > 128 µg/mL
in vivo oral activity [21]: > 300 mg./kg.X2
MIC [22]: 16 µg/mL
MIC ([23]; C. difficile 78): 1.0 µg/mL
MIC ([23]; C. difficile 107B): 1.0 µg/mL
MIC ([23]; C. difficile 111F): 2 µg/mL
MIC ([23]; C. difficile 1153): 2 µg/mL
MIC ([23]; C. difficile 2634): 2 µg/mL
MIC ([23]; C. difficile 3424-5B): 1.0 µg/mL
MIC ([23]; C. difficile 3816): 2 µg/mL
MIC ([23]; C. difficile 3950): 2 µg/mL
MIC ([23]; C. difficile 6890): 2 µg/mL
MIC ([23]; C. difficile 8484): 1.0 µg/mL
MIC ([23]; C. difficile A-194): 2 µg/mL
MIC ([23]; C. difficile A-195): 1.0 µg/mL
MIC ([23]; C. difficile A-196): 2 µg/mL
MIC ([23]; C. difficile A-279): 2 µg/mL
MIC ([23]; C. difficile A-280): 1.0 µg/mL
MIC ([23]; C. difficile A-281): 2 µg/mL
MIC ([23]; C. difficile WAL-2112): 2 µg/mL
MIC ([23]; C. difficile WAL-3657): 2 µg/mL
MIC ([23]; C. difficile WAL-4268): 1.0 µg/mL
